Our source for the solubility values is patent US10662218B2, “Analogs of celastrol” (ERX Pharmaceuticals, Inc., priority 2015, dated 2020).

Values after ≈ are worked out from the molar mass of the structure shown.

The data set is described as follows: Compound solubility in PBS (pH 7.4), LC-MS/MS. The protocol:
• Test concentration: 100 μM (1% of DMSO) • Test systems: PBS (pH 7.4) • Incubation condition: shaken (1000 rpm) for 1 h at room temperature • Sample size: Duplicates (n=2) • Bioanalytical method: LC-MS/MS

Where [1] appears, read: PBS (pH 7.4), pH 7.4, aqueous buffer, kinetic from dmso stock, Solubility (μM) Mean, Table 6-B, test concentration 100 μM (1% of DMSO), shaken (1000 rpm) 1 h at room temperature, n = 2.
The mark [2] stands for this setting: PBS (pH 7.4), pH 7.4, aqueous buffer, kinetic from dmso stock, Solubility (μM), Table 6-D.
Where [3] appears, read: pH 7.4, aqueous buffer, kinetic from dmso stock, Solubility (μM) Mean, Table 6-B; PBS (pH 7.4), test concentration 100 μM (1% of DMSO), shaken (1000 rpm) 1 h at room temperature, n = 2.
The mark [4] stands for this setting: pH 7.4, aqueous buffer, kinetic from dmso stock, Solubility (μM), Table 6-D; PBS (pH 7.4).

The term solubility denotes the concentration that dissolves in the medium under given conditions. A higher solubility goes with a readily soluble substance. For `CC1=C(O)C(=O)C=C2C1=CC=C1[C@@]2(C)CC[C@@]2(C)[C@@H]3C[C@](C)(NS(C)(=O)=O)CC[C@]3(C)CC[C@]12C` [ERX1175], the solubility at 1 h reads like this: under setting [1], 4.03 µM (≈ 2.01 µg/mL); under setting [2], 4.03 µM (≈ 2.01 µg/mL).
Consider `CC(=O)Oc1cc2c(c(C)c1OC(C)=O)C(SC(C)C)C=C1[C@@]2(C)CC[C@@]2(C)[C@@H]3C[C@](C)(C(N)=O)CC[C@]3(C)CC[C@]12C` (stereo partly drawn) [ERX1066], for which the solubility at 1 h worked out at 0.63 µM (≈ 0.384 µg/mL) under setting [1] and 0.627 µM (≈ 0.383 µg/mL) under setting [2].
As to `CC1=C(O)C(=O)C=C2C1=CC=C1[C@@]2(C)CC[C@@]2(C)[C@@H]3C[C@](C)(CN4CCN(C)CC4)CC[C@]3(C)CC[C@]12C` [ERX1117], the concentration in solution under setting [1] (solubility at 1 h) was 0.91 µM (≈ 0.472 µg/mL) and the concentration in solution under setting [2] (solubility at 1 h) was 0.914 µM (≈ 0.474 µg/mL).
For `CC1=C(O)C(=O)C=C2C1=CC=C1[C@@]2(C)CC[C@@]2(C)[C@@H]3C[C@](C)(C(=O)NC(CO)CO)CC[C@]3(C)CC[C@]12C` [ERX1029], the solubility runs as follows: under setting [3], 1.61 µM (≈ 0.843 µg/mL); under setting [4], 1.6 µM (≈ 0.841 µg/mL).
As to `CC(=O)Oc1cc2c(c(C)c1OC(C)=O)C(SC(C)C)C=C1[C@@]2(C)CC[C@@]2(C)[C@@H]3C[C@](C)(CN(C)C)CC[C@]3(C)CC[C@]12C` (stereo partly drawn) [ERX1115], the solubility at 1 h under setting [1] was found to be 0.56 µM (≈ 0.349 µg/mL) and the solubility at 1 h under setting [2] is 0.557 µM (≈ 0.348 µg/mL).
Take `COC(=O)[C@]1(C)CC[C@]2(C)CC[C@]3(C)C4=CC=C5C(=CC(=O)C(O)=C5C)[C@]4(C)CC[C@@]3(C)[C@@H]2C1` [ERX1074]: the solubility at 1 h was 4.19 µM (≈ 1.95 µg/mL) under setting [3] and 4.19 µM (≈ 1.95 µg/mL) under setting [4].
Regarding `CC1=C(O)C(=O)C=C2C1=CC=C1[C@@]2(C)CC[C@@]2(C)[C@@H]3C[C@](C)(CO)CC[C@]3(C)CC[C@]12C` [ERX1010], the solubility under setting [3] stood at 0.64 µM (≈ 0.279 µg/mL) and the solubility under setting [4] is 0.644 µM (≈ 0.281 µg/mL).
Regarding `CC(=O)N[C@]1(C)CC[C@]2(C)CC[C@]3(C)C4=CC(SC(=O)c5ccccc5)c5c(cc(OC(C)=O)c(OC(C)=O)c5C)[C@]4(C)CC[C@@]3(C)[C@@H]2C1` (stereo partly drawn) [ERX1173], where the note is “PBS (pH 7.4), pH 7.4, aqueous buffer, kinetic from dmso stock, Solubility (μM) Mean, Table 6-C, test concentration 100 μM (1% of DMSO), shaken (1000 rpm) 1 h at room temperature, n = 2”, the concentration in solution (solubility at 1 h) was 1.74 µM (≈ 1.19 µg/mL).
With `CC(C)NCC(O)COc1cccc2ccccc12` (stereo not drawn) [Propranolol], the solubility at 1 h reads like this: under setting [3], 97.5 µM (≈ 25.3 µg/mL); (pH 7.4, aqueous buffer, kinetic from dmso stock, Solubility (μM) Mean, Table 6-C; PBS (pH 7.4), test concentration 100 μM (1% of DMSO), shaken (1000 rpm) 1 h at room temperature, n = 2) greater than 100 µM; under setting [4], 97.5 µM (≈ 25.3 µg/mL).
